Where a name gives a salt, the structure may show the parent alone. Read-outs that look alike come from different tables or passages of the source.
Experiments:
[1] = target: PDE 4 (phosphodiesterase IV); test: PDE 4 inhibiting effect (3H-cAMP hydrolysis, PDE 4 active fraction from Balb/c mouse liver); type: biochemical; conditions: PDE 4 fraction from Balb/c mice liver, 0.064 μM cAMP, 2 hours at 25° C., read-out: PDE4 IC50
Procedure: Methods for Evaluating the PDE 4 Inhibiting Effect
The PDE 4 (phosphodiesterase IV) inhibiting effect of the compounds of the present invention was performed by the following method, which was modified assay method described in Biochemical. […] That is, the livers obtained from three Balb/c mice (male, 12 weeks: obtainable from CLEA Japan, Inc.) were suspended with 30 mL of buffer solution B [20 mM of bis-tris, 5 mM of 2-mercaptoethanol, 2 mM of benzamidine, 2 mM of EDTA, 0.1 mM of 4-(2-aminoethyl)benzenesulfonyl hydrochloride, 50 mM of sodium acetate; pH 6.5], then homogenized by Polytron® homogenizer. The homogenate were centrifuged under 25,000×G for 10 minutes at 4° C. The supernatant was separated and thus obtained supernatant was further centrifuged under 100,000×G for 60 minutes at 4° C., and then filtrated with 0.2 μm filter to obtain the soluble fraction. • (2) The obtained soluble fraction was filled in equilibrium DEAE sepharose column (1×10 cm) with buffer solution B, and phosphodiesterase fractions were eluted by 120 mL of buffer solution B with linear gradient from 0.05 to 1M sodium acetate concentration. 5 mL each of 24 eluents were collected, and each eluents were examined for cyclic AMP metabolic activities of phosphodiesterase. […] After the reaction, suspension of Sephadex®-QAE in 10 mM of HEPES-Na (pH 7.0) was added to the reaction mixture, and the mixture was left at rest for 5 minutes.

[2] = target: PDE 7 (phosphodiesterase VII) (Homo sapiens (Human), UniProt Q13946); test: PDE 7 inhibiting effect (3H-cAMP hydrolysis, PDE 7 active fraction from MOLT-4 cells); type: biochemical; conditions: read-out: PDE7 IC50
Procedure: Methods for Evaluating the PDE 7 Inhibiting Effect
The PDE 7 (phosphodiesterase VII) inhibiting effect of the compounds of the present invention was performed by the following method, which was modified assay method described in Biochemical. Pharmacol. 48(6), 1219-1223 (1994). • (1) The active fraction of PDE 7 (phosphodiesterase VII) was obtained. That is, MOLT-4 (obtainable from ATCC as ATCC No. CRL-1582), which was cell line of human acute lymphoblastic lymphoma T cells, was incubated in RPMI1640 culture medium containing 10% fetal bovine serum to obtain 5×10^8 MOLT-4 cells. The cells were collected by centrifugation and suspended with 10 mL of buffer solution A [25 mM of tris-HCl, 5 mM of 2-mercaptoethanol, 2 mM of benzamidine, 2 mM of EDTA, 0.1 mM of 4-(2-aminoethyl)benzenesulfonyl hydrochloride; pH 7.5], then homogenized by Polytron® homogenizer. The homogenate were centrifuged under 25,000×G for 10 minutes at 4° C. The supernatant was separated and thus obtained supernatant was further centrifuged under 100,000×G for 60 minutes at 4° C., and then filtrated with 0.2 μm filter to obtain the soluble fraction. • (2) The obtained soluble fraction was filled in equilibrium HiTrap Q column (5 mL×2) with buffer solution A, and phosphodiesterase fractions were eluted by 300 mL of buffer solution A with linear gradient from 0 to 0.8 M NaCl concentration. 5 mL each of 60 eluents were collected, and each eluents were examined for cyclic AMP metabolic activities of phosphodiesterase. […] After the reaction, suspension of Sephadex®-QAE in 10 mM of HEPES-Na (pH 7.0) was added to the reaction mixture, and the mixture was left at rest for 5 minutes.

[3] = PDE 7 fraction from MOLT-4 cells, 0.064 μM cAMP, 10 μM rolipram, 2 hours at 25° C.

Chain of PDE 7 (phosphodiesterase VII) (Q13946 whole entry): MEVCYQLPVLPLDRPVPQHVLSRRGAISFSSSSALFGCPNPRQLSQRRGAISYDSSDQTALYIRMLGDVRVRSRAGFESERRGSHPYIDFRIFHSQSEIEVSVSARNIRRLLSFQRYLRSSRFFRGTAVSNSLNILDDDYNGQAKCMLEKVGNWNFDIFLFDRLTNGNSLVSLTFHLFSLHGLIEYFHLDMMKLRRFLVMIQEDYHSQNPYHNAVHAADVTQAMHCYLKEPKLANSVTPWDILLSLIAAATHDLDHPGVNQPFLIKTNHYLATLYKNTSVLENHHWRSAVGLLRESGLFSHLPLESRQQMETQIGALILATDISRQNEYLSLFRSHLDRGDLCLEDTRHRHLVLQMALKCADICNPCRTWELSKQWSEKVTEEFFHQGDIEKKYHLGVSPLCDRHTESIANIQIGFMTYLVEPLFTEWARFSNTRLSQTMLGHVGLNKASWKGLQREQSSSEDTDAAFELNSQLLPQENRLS

Row | IC50 [1] [nM] | IC50 [2, 3] [nM] | IC50 ([1]; methanesulfonate) [nM] | IC50 ([2]; PDE 7 fraction from MOLT-4 cells, 0.064 μM cAMP, 10 μM rolipram, 2 hours at 25° C., methanesulfonate) [nM] | SMILES | IC50 [2] [nM]
1 | 1200 | 9 | – | – | Cc1nn(C2CCCCC2)c2sc(C(=O)Nc3ccc(N4CCN(C)CC4)cc3)cc12 [Example 106, 1-Cyclohexyl-3-methyl-N-[4-(4-methyl-1-piperazinyl)phenyl]-1H-thieno[2,3-c]pyrazole-5-carboxamide] | –
2 | – | – | 2000 | 17 | Cc1nn(C2CCCCC2)c2sc(C(=O)Nc3ccc(N4CCN(C)CC4)cc3)cc12 [Example 107, 1-Cyclohexyl-3-methyl-N-[4-(4-methyl-1-piperazinyl)phenyl]-1H-thieno[2,3-c]pyrazole-5-carboxamide methanesulfonate] | –
3 | 5500 | 75 | – | – | Cc1nn(C2CCCCC2)c2sc(C(=O)Nc3cccc(S(=O)(=O)N4CCN(C)CC4)c3)cc12 [Example 110, 1-Cyclohexyl-3-methyl-N-{3-[(4-methyl-piperazinyl)sulfonyl]-phenyl}-1H-thieno[2,3-c]pyrazole-5-carboxamide HCl salt] | –
4 | > 30000 | 10 | – | – | CNS(=O)(=O)c1cccc(NC(=O)c2cc3c(C)nn(C4CCCCC4)c3s2)c1 [Example 111, 1-Cyclohexyl-3-methyl-N-{3-[(methylamino)sulfonyl]phenyl}-1H-thieno[2,3-c]pyrazole-5-carboxamide] | –
5 | 1200 | 8 | – | – | Cc1nn(C2CCCCCC2)c2sc(C(=O)Nc3ccc(N4CCN(C)CC4)cc3)cc12 [Example 112] | –
6 | 1500 | 40 | – | – | COc1cc(NC(=O)c2cc3c(C)nn(C4CCCCCC4)c3s2)ccc1NC(C)=O [Example 115, N-[4-(Acetylamino)-3-methoxyphenyl]-1-cycloheptyl-3-methyl-1H-thieno[2,3-c]pyrazole-5-carboxamide] | –
7 | 4000 | 75 | – | – | Cc1nn(C2CCCCC2)c2sc(C(=O)Nc3ccc(N(C)CCO)c(F)c3)cc12 [Example 125, 1-Cyclohexyl-N-{3-fluoro-4-[(2-hydroxyethyl)(methyl)amino]phenyl}-3-methyl-1H-thieno[2,3-c]pyrazole-5-carboxamide HCl salt] | –
8 | 7400 | 53 | – | – | Cc1nn(C2CCCCC2)c2sc(C(=O)NC3CCN(C4CCOCC4)CC3)cc12 [Example 135, 1-Cyclohexyl-3-methyl-N-(1-tetrahydro-2H-pyran-4-yl-4-piperidinyl)-1H-thieno[2,3-c]pyrazole-5-carboxamide] | –
9 | 1600 | 22 | – | – | Cc1nn(C2CCCCC2)c2sc(C(=O)Nc3ccc(C4CCNCC4)cc3)cc12 [Example 141, 1-Cyclohexyl-3-methyl-N-[4-(4-piperidinyl)phenyl]-1H-thieno[2,3-c]pyrazole-5-carboxamide HCl salt] | –
10 | 2000 | 14 | – | – | Cc1nn(C2CCCCC2)c2sc(C(=O)Nc3ccc(C4CCN(C)CC4)cc3)cc12 [Example 142, 1-Cyclohexyl-3-methyl-N-[4(1-methyl-4-piperidinyl)phenyl]-1H-thieno[2,3-c]pyrazole-5-carboxamide] | –
11 | 700 | 45 | – | – | COc1cc(NC(=O)c2cc3c(C)nn(C4CCCCC4)c3s2)ccc1C(=O)NCCO [Example 150, 1-Cyclohexyl-N-(4-{[(2-hydroxyethyl)amino]carbonyl}-3-methoxyphenyl)-3-methyl-1H-thieno[2,3-c]pyrazole-5-carboxamide] | –
12 | 3000 | 85 | – | – | CNC(=O)c1ccc(NC(=O)c2cc3c(C)nn(C4CCCCC4)c3s2)cc1OC [Example 152, 1-Cyclohexyl-N-{3-methoxy-4-[(methylamino)carbonyl]phenyl}-3-methyl-1H-thieno[2,3-c]pyrazole-5-carboxamide] | –

Row | SMILES | IC50 [1] [nM] | IC50 [2, 3] [nM] | IC50 ([1]; methanesulfonate) [nM] | IC50 ([2]; PDE 7 fraction from MOLT-4 cells, 0.064 μM cAMP, 10 μM rolipram, 2 hours at 25° C., methanesulfonate) [nM] | IC50 [2] [nM]
13 | Cc1nn(C2CCCCC2)c2sc(C(=O)Nc3ccc(N4CCN(C)CC4)nc3)cc12 [Example 109, 1-Cyclohexyl-3-methyl-N-[6-(4-methyl-1-piperazinyl)-3-pyridinyl]-1H-thieno[2,3-c]pyrazole-5-carboxamide di-HCl salt] | 1000 | – | – | – | 15

Source: patent US8901315B2, “Thienopyrazole derivative having PDE7 inhibitory activity” (Daiichi Sankyo Company, Limited, priority 2004, dated 2014)
